From EP2433927A1, “KETOXIME ESTER PHOTOINITIATOR” (Changzhou Tronly New Electronic Materials Co., Ltd, priority 2009, dated 2010) come the findings set out here.

Data set [1] can be described thus: Thermal stability by TGA (temperature at weight loss). It is filed as physicochemical. The following applies: for Temp. at Weight Loss 5% / Temp. at Weight Loss 10% / Temp. at Weight Loss 15%: TGA, N2 at 10 °C/min; for Temp. at Weight Loss 5%: 5% weight loss; for Temp. at Weight Loss 10%: 10% weight loss; for Temp. at Weight Loss 15%: 15% weight loss; for thermal stability: result in words, compared with material A (OXE-1).

Data set [2] is described as follows: Solubility of the photoinitiators in organic solvents. The data set is classed as physicochemical. The following applies: 20°C, 100 g solvent.

As for `CCCCCCC(=NOC(=O)c1ccccc1)C(=O)c1ccc(Sc2ccccc2)cc1` [A, 1-(4-phenylthiophenyl)-n-octane-1,2-dione-2-benzoic acid oxime ester, reference compound], in data set [1], the “Temp. at Weight Loss 5%” value was 185 °C, the “Temp. at Weight Loss 10%” value was found to be 201 °C and the “Temp. at Weight Loss 15%” value amounted to 213 °C.
`O=C(ON=C(CC1CCCC1)C(=O)c1ccc(Sc2ccccc2)cc1)c1ccccc1` [B, 1-(4-phenylthiophenyl)-(3-cyclopentyl)-propane-1,2-dione-2-benzoic acid oxime ester] gave a solubility in data set [2] (solvent PGMEA) of 27.49 g. The same compound gave a solubility in data set [2] (solvent cyclohexanone) of 35 g. In addition, in data set [1], the “Temp. at Weight Loss 5%” value amounted to 205 °C, the “Temp. at Weight Loss 10%” value came to 225 °C, the “Temp. at Weight Loss 15%” value was 236 °C and the thermal stability entry is listed as “better thermal stability than that of material A”.
`CCn1c2ccc(C(=O)C(CC3CCCC3)=NOC(=O)c3ccccc3)cc2c2cc(C(=O)c3ccccc3C)ccc21` [C, 1-(6-o-methylbenzoyl-9-ethylcarbazole-3-yl)-(3-cyclopentyl)-propane-1,2-dione-2-benzoic acid oxime ester] yielded a solubility in data set [2] (solvent PGMEA) of 6.93 g. This compound also yielded a solubility in data set [2] (solvent cyclohexanone) of 18 g. Also, in data set [1], the “Temp. at Weight Loss 5%” value came out at 230 °C, the “Temp. at Weight Loss 10%” value came out at 245 °C, the “Temp. at Weight Loss 15%” value was 255 °C and the thermal stability entry is on record as “better thermal stability than that of material A”.
